Article PMC12423301, “Astrocytic monoamine oxidase B (MAOB)–gamma-aminobutyric acid (GABA) axis as a molecular brake on repair following spinal cord injury” (Signal Transduction and Targeted Therapy, 2025)
Values joined by “and” are separate entries in the source; they are usually repeats but may differ in a detail not shown here. Equal entries are not always repeated.

Assays:
[1] = Phase 1 clinical trial: treatment-emergent adverse events; format: in vivo, human
Experimental: Eligibility criteria included healthy adults (aged 19–45) for the SAD and MAD cohorts, and healthy elderly subjects (aged 65–85) for cohort 11. The participants were excluded if they met the following criteria: serum AST or ALT greater than 60 IU/L, total bilirubin greater than 1.8 mg/dL, creatinine phosphokinase (CPK) levels greater than 405 IU/L, creatinine clearance calculated by the Chronic Kidney Disease Epidemiology Collaboration (CKD-EPI) equation less than 60 mL/min/1.73 m². At the time of randomization, all subjects were required to be free from any clinically significant medical conditions. The study was approved by the Seoul National University Hospital institutional review board and conducted in accordance with the Declaration of Helsinki and Good Clinical Practice guidelines.
Subjects who met the eligibility criteria were admitted to the Seoul National University Hospital Clinical Trial Center one day prior to the first dose administration. […] After administration of the last dose, subjects were discharged 72 h later and visited the outpatient clinic for follow-up on three consecutive days. Pharmacokinetics and safety were monitored until the end of the study, lasting up to 18 days after the last dose.
The primary endpoint was the incidence of TEAEs by dose group. […] Those deemed to have a causal relationship with the drug were classified as ADRs. Dose escalation proceeded under blinded conditions, contingent on the absence of dose-limiting toxicity, as reviewed by a safety review committee.

[2] = parameters: method as in PMID 30906861; details: cited from earlier work
[3] = system: Alzheimer’s disease mouse model; details: cited from earlier work
[4] = cynomolgus monkey, in vivo, po
rat SCI model = experiment: Ki67 promoter dual-virus labeling of proliferating cells; format: in vivo, Sprague-Dawley (SD) rats; details: SCI + KDS 2w, PI 10w
[5] = Preclinical pharmacokinetics in monkeys; format: in vivo, Cynomolgus monkey; details: for AUC(0-t) / Vd/F / Tmax / AUC(0-inf) / CL/F / half-life: cynomolgus monkey, in vivo
Experimental: In a pharmacokinetic study, plasma PK parameters were measured after a single oral administration of […]
dose group and at 4 to 6 hours after administration in the 30 mg/kg dose group. In the elimination phase, the […]
Systemic exposure (AUClast) to the test substance was 30587 and 80770 ng*hr/mL, respectively. […]

[6] = MAD, healthy elderly, Cohort 11, 120 mg, n = 6
[7] = MAD, young healthy adults, Cohort 7, 60 mg, n = 6
[8] = MAD, young healthy adults, Cohort 8, 120 mg, n = 6
[9] = MAD, young healthy adults, Cohort 9, 240 mg, n = 6
[10] = MAD, young healthy adults, Cohort 10, 480 mg, n = 6
[11] = SAD, young healthy adults, Cohort 1, 30 mg, n = 6
[12] = SAD, young healthy adults, Cohort 2, 60 mg, n = 6
[13] = SAD, young healthy adults, Cohort 3, 120 mg, fasting, n = 6
[14] = SAD, young healthy adults, Cohort 3, 120 mg, fed, n = 5
[15] = SAD, young healthy adults, Cohort 4, 240 mg, n = 6
[16] = SAD, young healthy adults, Cohort 5, 480 mg, n = 6
[17] = SAD, young healthy adults, Cohort 6, 960 mg, n = 6

CS(=O)(=O)O.C[C@H](NCc1ccc(-c2ccc(C(F)(F)F)cc2)cc1)C(N)=O [KDS2010, (S)-2-(((4’-Trifluoromethylbiphenyl-4-yl)methyl)amino)propanamide methane-sulfonate]
effect of a high-fat meal on the frequency of TEAEs ([1]; 120 mg): did not affect | TEAE: Abdominal discomfort [1, 6]: 2 (33.3) number of subjects (%) | TEAE: Constipation [1, 6]: 2 (33.3) number of subjects (%) | TEAE: Diarrhea [1, 6]: 2 (33.3) number of subjects (%) | TEAE: Dizziness [1, 6]: 1 (16.7) number of subjects (%) | TEAE: Hematocrit decreased [1, 6]: 2 (33.3) number of subjects (%) | TEAE: Red blood cell count decreased [1, 6]: 1 (16.7) number of subjects (%) | TEAEs: Any [1, 6]: 5 (83.3) number of subjects (%) | TEAEs: Serious [1, 6]: 0 number of subjects (%) | TEAE: Cough [1, 7]: 1 (16.7) number of subjects (%) | TEAE: Rhinorrhoea [1, 7]: 1 (16.7) number of subjects (%) | TEAEs: Any [1, 7]: 2 (33.3) number of subjects (%) | TEAEs: Serious [1, 7]: 0 number of subjects (%) | TEAEs: Any [1, 8]: 0 number of subjects (%) | TEAEs: Serious [1, 8]: 0 number of subjects (%) | TEAE: Hypersomnia [1, 9]: 1 (16.7) number of subjects (%) | TEAEs: Any [1, 9]: 1 (16.7) number of subjects (%) | TEAEs: Serious [1, 9]: 0 number of subjects (%) | TEAE: Conjunctival hyperemia [1, 10]: 1 (16.7) number of subjects (%) | TEAE: Oropharyngeal pain [1, 10]: 1 (16.7) number of subjects (%) | TEAEs: Any [1, 10]: 2 (33.3) number of subjects (%) | TEAEs: Serious [1, 10]: 0 number of subjects (%) | TEAEs: Any [1, 11]: 2 (33.3) number of subjects (%) | TEAEs: Serious [1, 11]: 0 number of subjects (%) | TEAE: Cough [1, 12]: 1 (16.7) number of subjects (%) | TEAE: Oropharyngeal pain [1, 12]: 1 (16.7) number of subjects (%) | TEAEs: Any [1, 12]: 1 (16.7) number of subjects (%) | TEAEs: Serious [1, 12]: 0 number of subjects (%) | TEAE: Neutrophil count increased [1, 13]: 1 (16.7) number of subjects (%) | TEAEs: Any [1, 13]: 3 (50.0) number of subjects (%) | TEAEs: Serious [1, 13]: 0 number of subjects (%) | TEAE: Neutrophil count increased [1, 14]: 2 (40.0) number of subjects (%) | TEAEs: Any [1, 14]: 3 (60.0) number of subjects (%) | TEAEs: Serious [1, 14]: 0 number of subjects (%) | TEAE: Dry eye [1, 15]: 1 (16.7) number of subjects (%) | TEAE: Neutrophil count increased [1, 15]: 1 (16.7) number of subjects (%) | TEAE: Ocular discomfort [1, 15]: 1 (16.7) number of subjects (%) | TEAE: Swelling of the eyelid [1, 15]: 1 (16.7) number of subjects (%) | TEAE: White blood cell count increased [1, 15]: 1 (16.7) number of subjects (%) | TEAEs: Any [1, 15]: 2 (33.3) number of subjects (%) | TEAEs: Serious [1, 15]: 0 number of subjects (%) | TEAE: Nasal congestion [1, 16]: 1 (16.7) number of subjects (%) | TEAE: Rhinorrhoea [1, 16]: 1 (16.7) number of subjects (%) | TEAEs: Any [1, 16]: 2 (33.3) number of subjects (%) | TEAEs: Serious [1, 16]: 0 number of subjects (%) | TEAE: Conjunctival hyperemia [1, 17]: 1 (16.7) number of subjects (%) | TEAE: Dizziness [1, 17]: 1 (16.7) number of subjects (%) | TEAE: Dry eye [1, 17]: 1 (16.7) number of subjects (%) | TEAE: Nasal congestion [1, 17]: 2 (33.3) number of subjects (%) | TEAE: Rhinorrhoea [1, 17]: 1 (16.7) number of subjects (%) | TEAE: Somnolence [1, 17]: 2 (33.3) number of subjects (%) | TEAEs: Any [1, 17]: 4 (66.7) number of subjects (%) | TEAEs: Serious [1, 17]: 0 number of subjects (%) | number of TEAEs ([1]; all subjects on KDS2010): 56 TEAEs | number of subjects with TEAEs ([1]; all subjects on KDS2010): 25 subjects | proportion of subjects with TEAEs ([1]; all subjects on KDS2010): 37.9% | autonomic nervous system TEAEs ([1]; higher doses (240–960 mg)): TEAEs related to the autonomic nervous system were observed | incidence of TEAEs vs dose ([1]; phase 1): tended to increase with dose | serious adverse events ([1]; phase 1, all cohorts): no serious adverse events | permeability across the blood‒brain barrier [2]: highly permeable | learning and memory impairment [3]: reverse learning and memory impairment | approximate lethal dose [4]: ≥ 100 mg/kg | mCh-positive signals (axon fibers from proliferating/proliferated cells) (rat SCI model): traversed the core of the injury site | AUC(0-t) [5]: ~13000 ng·h/mL | Vd/F ([5]; iv, 5 mg/kg): 3.714 ± 0.609 L/kg | increase in the AUC, 30 mg/kg vs 10 mg/kg ([5]; cynomolgus monkeys): 5 fold and ~ 4.6 fold | increase rate of Cmax vs dose ([5]; male monkeys, 10 and 30 mg/kg): slightly lower | Tmax ([5]; male): 2 to 6 h | AUC(0-inf) ([5]; male, po, 10 mg/kg): 43.6 µg·h/mL | CL/F ([5]; male, po, 10 mg/kg): 3.8 mL/min/kg | Vd/F ([5]; male, po, 10 mg/kg): 4.49 ± 0.61 L/kg | half-life ([5]; male, po, 10 mg/kg, t1/2): 823 ± 28.8 min | AUC(0-inf) ([5]; male, po, 30 mg/kg): 202 ± 76.8 µg·h/mL | CL/F ([5]; male, po, 30 mg/kg): 2.58 mL/min/kg | Vd/F ([5]; male, po, 30 mg/kg): 6.27 ± 1.67 L/kg | half-life ([5]; male, po, 30 mg/kg, t1/2): 1020 min | AUC(0-inf) ([5]; male, cynomolgus, po, 10 mg/kg): 43.6 µg·h/mL | AUC(0-t) ([5]; male, cynomolgus, po, 10 mg/kg): 30600 ng·h/mL | Tmax ([5]; male, cynomolgus, po, 10 mg/kg): 2 h | half-life ([5]; male, cynomolgus, po, 10 mg/kg, mean half-life (t1/2)): 822 min | half-life ([5]; male, cynomolgus, po, 10 mg/kg, t1/2): 822 min | AUC(0-inf) ([5]; male, cynomolgus, po, 30 mg/kg): ~202 µg·h/mL | AUC(0-t) ([5]; male, cynomolgus, po, 30 mg/kg): 80800 ng·h/mL | Tmax ([5]; male, cynomolgus, po, 30 mg/kg): 4 to 6 h | half-life ([5]; male, cynomolgus, po, 30 mg/kg, mean half-life (t1/2)): 1870 min | half-life ([5]; male, cynomolgus, po, 30 mg/kg, t1/2): ~1870 min
